Drawing on patent publication US9150546B2, “Triazine derivative and pharmaceutical composition comprising the same” (SHIONOGI & CO., LTD., priority 2009, dated 2015), this text covers IC50 for 71 compounds.

For this assay, the target named is human P2X3 receptor (Homo sapiens (Human), UniProt P56373). The assay is described as follows: P2X3 receptor inhibition, ATP-evoked Fluo-3 fluorescence (FDSS 3000). The class given is cell-based. The settings on record: C6BU-1 cell transfected with human P2X3 receptor gene.
human P2X3 receptor, sequence (P56373 whole entry): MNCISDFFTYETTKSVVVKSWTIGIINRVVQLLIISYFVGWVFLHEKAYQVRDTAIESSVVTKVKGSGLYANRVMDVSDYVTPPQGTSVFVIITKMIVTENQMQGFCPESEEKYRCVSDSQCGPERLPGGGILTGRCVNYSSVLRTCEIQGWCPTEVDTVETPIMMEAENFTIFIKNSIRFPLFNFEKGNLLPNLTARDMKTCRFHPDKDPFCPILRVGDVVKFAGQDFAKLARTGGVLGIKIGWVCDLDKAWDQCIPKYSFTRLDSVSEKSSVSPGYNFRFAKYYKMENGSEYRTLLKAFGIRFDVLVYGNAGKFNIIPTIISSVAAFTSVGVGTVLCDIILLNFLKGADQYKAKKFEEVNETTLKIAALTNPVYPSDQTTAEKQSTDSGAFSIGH

The structures appear in SMILES notation.

By IC50 is commonly meant the concentration that gives 50% inhibition. Read a high IC50 as weaker potency. Compound `O=c1nc(Nc2ccc(OC3CCCC3)cc2)n(Cc2ccc(Cl)cc2)c(=O)n1CCO` [I-322] gave an IC50 of 112 nM.
In turn, `COC(=O)C(C)(C)Cn1c(=O)[nH]/c(=N\c2ccc(OC(C)C)c(Cl)c2)n(CC2CCCCC2)c1=O` [I-547] gave an IC50 of 11 nM.
`Cc1cc2cc(/N=c3\[nH]c(=O)n(CCCC(=O)O)c(=O)n3Cc3ccc(Cl)cc3)ccc2o1` [I-505]: the IC50 came out at 120 nM. This IC50 lies about 11-fold higher than the previous one.
The result for `Cc1cc(/N=c2\[nH]c(=O)n([C@@H](C)CC(=O)O)c(=O)n2Cc2ccc(Cl)cc2)ccc1OC(C)C` [I-528] reads 53 nM; that for `CC(C)Oc1ccc(/N=c2\[nH]c(=O)n(CCC(=O)NCC(N)=O)c(=O)n2Cc2ccc(Cl)cc2)cc1F` [I-440], 55 nM.
The result for `Cc1cc(/N=c2\[nH]c(=O)n([C@H](C)CC(=O)O)c(=O)n2Cc2ccc(Cl)cc2)ccc1OC(C)C` [I-563] reads 40 nM.
The result for `CC(C)Oc1ccc(/N=c2\[nH]c(OCC(C)(C)C(=O)O)nc(=O)n2Cc2ccc(Cl)cc2)cc1Cl` [II-010] reads 349 nM; that for `CNC(=O)Cn1c(=O)nc(Nc2ccc(OC(C)C)c(F)c2)n(Cc2ccc(Cl)cc2)c1=O` [I-294], 40 nM; that for `CC(C)Oc1ccc(/N=c2\[nH]c(=O)n(CC(C)(C)C(=O)O)c(=O)n2CC2CCCCC2)cc1Cl` [I-551], 34 nM.
The compound `Cc1ccc(Cn2c(=O)n(C[C@H](C)C(=O)O)c(=O)[nH]/c2=N\c2ccc(OC(C)C)c(F)c2)cc1` [I-517] gave an IC50 of 15 nM.
As for `CC(C)(Cn1c(=O)[nH]/c(=N\c2cccc(OC(F)F)c2)n(Cc2ccc(Cl)cc2)c1=O)C(=O)O` [I-448], half-maximal inhibition (IC50) was put at 388 nM.
Under `COC(=O)C[C@H](C)n1c(=O)[nH]/c(=N\c2ccc(OC(C)C)c(Cl)c2)n(Cc2ccc(Cl)cc2)c1=O` [I-522] stands 29 nM.
As for `CCNC(=O)NCCn1c(=O)nc(Nc2ccc(OC(C)C)c(F)c2)n(Cc2ccc(Cl)cc2)c1=O` [I-389], it took 64 nM to reach half-maximal inhibition (IC50).
Under `COC(=O)C(C)(C)Cn1c(=O)[nH]/c(=N\c2ccc3c(ccn3C)c2)n(Cc2ccc(Cl)cc2)c1=O` [I-427] stands 678 nM; under `CC(C)Oc1ccc(/N=c2\[nH]c(=O)n(C[C@H](C)C(=O)O)c(=O)n2Cc2ccc(Cl)cc2)cc1Cl` [I-461], 9 nM; under `CC(C)Oc1ccc(Nc2nc(=O)n(CC(=O)N(C)C)c(=O)n2Cc2ccc(Cl)cc2)cc1F` [I-293], 351 nM.
Under `CC(C)(Cn1c(=O)[nH]/c(=N\c2ccc3[nH]ccc3c2)n(Cc2ccc(Cl)cc2)c1=O)C(=O)O` [I-478] stands 629 nM.
`CC(C)Oc1ccc(/N=c2\n(C)c(=O)n(CCOC3CCCCO3)c(=O)n2Cc2ccc(Cl)cc2)cc1F` (centres unmarked) [I-546] displayed an IC50 of 459 nM.
Under `Cc1cc2cc(/N=c3\[nH]c(=O)[nH]c(=O)n3Cc3ccc(Cl)cc3)ccc2o1` [I-501] stands 191 nM; under `CC(C)Oc1ccc(Nc2nc(=O)n(CCO)c(=O)n2Cc2ccc(F)cc2F)cc1F` [I-340], 336 nM; under `COC(=O)C(C)(C)Cn1c(=O)[nH]/c(=N\c2cccc(Cl)c2)n(Cc2ccc(Cl)cc2)c1=O` [I-466], 37 nM.
Under `COC(=O)c1cccc(Cn2c(=O)[nH]/c(=N\c3ccc(OC(C)C)c(F)c3)n(Cc3ccc(Cl)cc3)c2=O)c1` [I-450] stands 36 nM; under `CC(C)Oc1ccc(Nc2nc(=O)n(CCCO)c(=O)n2Cc2ccc(Cl)cc2)cc1` [I-359], 40 nM; under `CNC(=O)NCCn1c(=O)nc(Nc2ccc(OC(C)C)c(F)c2)n(Cc2ccc(Cl)cc2)c1=O` [I-387], 37 nM.
For the compound `CC(C)Oc1ccc(Nc2nc(=O)n(CC(CO)CO)c(=O)n2Cc2ccc(Cl)cc2)cc1F` [I-276], the IC50 stood at 12 nM.
Under `CCN(CC)c1nc(=O)n(Cc2ccc(Cl)cc2)/c(=N/c2ccc(OC(C)C)c(Cl)c2)[nH]1` [II-013] stands 430 nM.
`CC(C)Oc1ccc(/N=c2\[nH]c(=O)n(CC3(C(=O)O)CC3)c(=O)n2Cc2ccc(Cl)cc2)cc1F` [I-424] returned an IC50 of 49 nM.
For the compound `CC(C)Oc1ccc(/N=c2\[nH]c(=O)n(C[C@H](C)C(=O)O)c(=O)n2Cc2ccc(Cl)cc2)cc1F` [I-456], the concentration for half-maximal inhibition (IC50) is 8 nM.
The result for `CC(C)Oc1ccc(Nc2nc(=O)n(CC(C)(CO)CO)c(=O)n2Cc2ccc(Cl)cc2)cc1F` [I-274] reads 9 nM; that for `CC(C)Oc1ccc(/N=c2\[nH]c(=O)n(C(C)C(=O)O)c(=O)n2Cc2ccc(Cl)cc2)cc1F` (centres unmarked) [I-475], 571 nM.
Under `CC(C)Oc1ccc(/N=c2\[nH]c(=O)n(CC(=O)NCC(N)=O)c(=O)n2Cc2ccc(Cl)cc2)cc1Cl` [I-438] stands 5 nM; under `CC(C)Oc1ccc(Nc2nc(=O)n(C(C)C)c(=O)n2Cc2ccc(F)cc2)cc1C(F)(F)F` [I-204], 558 nM; under `COC(=O)C[C@@H](C)n1c(=O)[nH]/c(=N\c2ccc(OC(C)C)c(C)c2)n(Cc2ccc(Cl)cc2)c1=O` [I-557], 19 nM.
The result for `CC(C)Oc1ccc(/N=c2\[nH]c(=O)n(CC(C)(C)C(=O)O)c(=O)n2Cc2ccc(Cl)cc2)cc1Cl` [I-401] reads 7 nM; that for `CC(C)Oc1ccc(Nc2nc(=O)n(C(C)C)c(=O)n2Cc2ccc(Cl)nc2)cc1Cl` [I-235], 985 nM.
In the case of `CC(C)Oc1ccc(Nc2nc(=O)n(CC(F)(F)C(=O)O)c(=O)n2Cc2ccc(Cl)cc2)cc1F` [I-283], the midpoint of inhibition, the IC50, lay at 19 nM.
Under `Cc1ccc(Cn2c(=O)n(CC(C)(C)C(=O)O)c(=O)[nH]/c2=N\c2ccc(OC(C)C)c(F)c2)cc1` [I-405] stands 32 nM; under `O=c1nc(Nc2ccc(OC(F)F)cc2)n(Cc2ccc(Cl)cc2)c(=O)n1CC(CO)CO` [I-370], 154 nM.
In the case of `COC(=O)C(C)n1c(=O)[nH]/c(=N\c2ccc(OC(C)C)c(F)c2)n(Cc2ccc(Cl)cc2)c1=O` (centres unmarked) [I-474], half-maximal inhibition (IC50) required 14 nM.
The result for `COC(=O)c1ccc(Cn2c(=O)[nH]/c(=N\c3ccc(OC(C)C)c(F)c3)n(Cc3ccc(Cl)cc3)c2=O)cc1` [I-444] reads 17 nM; that for `CC(C)n1c(=O)nc(Nc2cccc(F)c2)n(Cc2ccc(F)cc2)c1=O` [I-182], 714 nM.
The result for `COC(=O)C(C)(C)Cn1c(=O)[nH]/c(=N\c2ccc(OC(C)C)c(Cl)c2)n(Cc2ccc(Cl)cc2)c1=O` [I-399] reads 8 nM; that for `CC(C)n1c(=O)nc(Nc2ccc(Oc3ccccc3)cc2)n(Cc2ccc(Cl)cn2)c1=O` [I-164], 860 nM; that for `CCOc1ccc(Nc2nc(=O)n(CCO)c(=O)n2Cc2ccc(Cl)cc2)cc1F` [I-312], 104 nM.
The result for `CC(C)Oc1ccc(/N=c2\[nH]c(=O)n(CC(C)(C)C(=O)O)c(=O)n2CC2CCCCCC2)cc1Cl` [I-553] reads 34 nM.
As to `Cc1ccc(Cn2c(Nc3ccc(Oc4ccccc4)cc3)nc(=O)n(C(C)C)c2=O)cc1` [I-116], the half-maximal inhibitory concentration (IC50) was determined as 484 nM.
Under `COC(=O)Cn1c(=O)nc(Nc2ccc(OC(C)C)c(F)c2)n(Cc2ccc(Cl)cc2)c1=O` [I-338] stands 53 nM.
The result for `CC(C)Oc1ccc(/N=c2\[nH]c(=O)n(C[C@H](C)C(=O)O)c(=O)n2Cc2ccc(Cl)cc2)cc1` [I-537] reads 19 nM.
Under `CC(C)Oc1ccc(/N=c2\[nH]c(=O)n(CCC(=O)NCC#N)c(=O)n2Cc2ccc(Cl)cc2)cc1F` [I-439] stands 18 nM; under `O=c1nc(Nc2cccc(OC(F)(F)F)c2)n(Cc2ccc(Cl)cc2)c(=O)n1CCO` [I-309], 357 nM; under `Cc1cc2cc(/N=c3\[nH]c(=O)n(C[C@@H](C)C(=O)O)c(=O)n3Cc3ccc(Cl)cc3)ccc2o1` [I-564], 48 nM.
`CC(C)COc1ccc(Nc2nc(=O)n(CCO)c(=O)n2Cc2ccc(Cl)cc2)cc1F` [I-323]: inhibition was half-maximal at 148 nM (IC50).
Under `O=c1nc(Nc2ccc(OC3CCOCC3)cc2)n(Cc2ccc(Cl)cc2)c(=O)n1CCO` [I-324] stands 309 nM; under `CCOc1ccc(/N=c2\[nH]c(=O)n(C[C@@H](C)C(=O)OC)c(=O)n2Cc2ccc(Cl)cc2)cc1` [I-480], 12 nM; under `CNC(=O)Cn1c(=O)[nH]/c(=N\c2ccc(OC(C)C)c(Cl)c2)n(Cc2ccc(Cl)cc2)c1=O` [I-436], 8 nM.
The compound `CC(C)n1c(=O)nc(Nc2ccc(C(=O)Nc3ccccc3)cc2)n(Cc2ccc(Cl)cc2)c1=O` [I-266] came in with an IC50 of 861 nM.
Compound `CCCOc1ccc(Nc2nc(=O)n(CCO)c(=O)n2Cc2ccc(Cl)cc2)cc1F` [I-321] yielded an IC50 of 33 nM.
The result for `CCCn1ccc2cc(/N=c3\[nH]c(=O)n(CC(C)(C)C(=O)O)c(=O)n3Cc3ccc(Cl)cc3)ccc21` [I-509] reads 652 nM; that for `CC(C)(Cn1c(=O)[nH]/c(=N\c2ccc(OC(F)F)cc2)n(Cc2ccc(Cl)cc2)c1=O)C(=O)O` [I-543], 172 nM; that for `CC(C)Oc1ccc(Nc2nc(=O)n(CC(N)=O)c(=O)n2Cc2ccc(Cl)cc2)cc1F` [I-295], 46 nM.
Under `CC(C)Oc1ccc(Nc2nc(=O)n(CCO)c(=O)n2Cc2ccc(F)c(F)c2)cc1F` [I-339] stands 775 nM; under `CC(C)n1c(=O)nc(Nc2cccc(C(F)(F)F)c2)n(Cc2ccc(F)cc2)c1=O` [I-126], 689 nM.
Under `CC(C)(Cn1c(=O)[nH]/c(=N\c2cccc(OC(F)(F)F)c2)n(Cc2ccc(Cl)cc2)c1=O)C(=O)O` [I-469] stands 101 nM.
Turning to `CCOc1ccc(Nc2nc(=O)n(CCCO)c(=O)n2Cc2ccc(Cl)cc2)cc1` [I-361], inhibition was half-maximal at 76 nM (IC50). This IC50 and that of the compound before are within 1.5-fold of each other.
The result for `Cc1ccc(Cn2c(Nc3ccc4[nH]ccc4c3)nc(=O)n(C(C)C)c2=O)cc1` [I-123] reads 815 nM.
The result for `CC(C)Oc1ccc(/N=c2\[nH]c(=O)n(CC(C)(C)C(=O)O)c(=O)n2CC2CCCC2)cc1Cl` [I-554] reads 139 nM.
Under `CC(C)Oc1ccc(/N=c2\[nH]c(=O)n(CC(=O)NCCO)c(=O)n2Cc2ccc(Cl)cc2)cc1Cl` [I-437] stands 6 nM; under `COC(=O)C(C)(C)Cn1c(=O)[nH]/c(=N\c2cccc(OC(F)(F)F)c2)n(Cc2ccc(Cl)cc2)c1=O` [I-467], 37 nM.
Compound `CC(C)Oc1ccc(Nc2nc(=O)n(CCO)c(=O)[nH]2)cc1F` [I-325] came in with an IC50 of 665 nM. Against the preceding compound, the IC50 is about 18-fold higher.
`O=c1nc(Nc2ccc(C(F)(F)F)c(F)c2)n(Cc2ccc(Cl)cc2)c(=O)n1CCO` [I-315] showed an IC50 of 183 nM.
Under `COCCOc1ccc(Nc2nc(=O)n(C(C)C)c(=O)n2Cc2ccc(Cl)cc2)cc1Cl` [I-237] stands 230 nM.
